Reference: ChEMBL document CHEMBL5715952 (Oncotarget, 2015)

Tests used:
[1] = Inhibition of VEGFR3/PDGFR/cKIT/RET in human RPMI-8226 cells assessed as reduction of cell growth incubated for 72 hrs by CellTiter 96 aqueous one solution cell proliferation assay; format: cell-based; conditions: RPMI-8226, 72 h
[2] = Ratio of IC50 for inhibition of VEGFR1/PDGFR/cKIT/RET in human RPMI-8226 cells assessed as reduction of cell viability to IC50 for inhibition of VEGFR1/PDGFR/cKIT/RET in human melphalan-resistant RPMI-8226 cells assessed as reduction of cell viability; conditions: time 72 hrs; condition multiple myeloma
[3] = Ratio of IC50 for inhibition of VEGFR2/PDGFR/cKIT/RET in human RPMI-8226 cells assessed as reduction of cell viability to IC50 for inhibition of VEGFR2/PDGFR/cKIT/RET in human RPMI-8226/BR resistant cells assessed as reduction of cell viability; conditions: condition multiple myeloma
[4] = Inhibition of VEGFR3/PDGFR/cKIT/RET in Melphalan Resistant human RPMI-8226 cells assessed as reduction of cell growth incubated for 72 hrs by CellTiter 96 aqueous one solution cell proliferation assay; format: cell-based; conditions: Melphalan-resistant RPMI-8226 cell
[5] = Inhibition of VEGFR1/PDGFR/cKIT/RET in human bortezomib-resistant ANBL6 cells assessed as reduction of cell growth incubated for 72 hrs by CellTiter 96 aqueous one solution cell proliferation assay; format: cell-based
[6] = Ratio of IC50 for inhibition of VEGFR3/PDGFR/cKIT/RET in human RPMI-8226 cells assessed as reduction of cell viability to IC50 for inhibition of VEGFR3/PDGFR/cKIT/RET in human RPMI-8226/BR resistant cells assessed as reduction of cell viability; conditions: condition multiple myeloma
[7] = Inhibition of VEGFR1/PDGFR/cKIT/RET in human RPMI-8226 cells assessed as reduction of cell growth incubated for 72 hrs by CellTiter 96 aqueous one solution cell proliferation assay; format: cell-based; conditions: RPMI-8226, 72 h
[8] = Inhibition of VEGFR1/PDGFR/cKIT/RET in human U-266 cells assessed as reduction of cell growth incubated for 72 hrs by CellTiter 96 aqueous one solution cell proliferation assay; format: cell-based; conditions: U-266, 72 h
[9] = Ratio of IC50 for inhibition of VEGFR1/PDGFR/cKIT/RET in human ANBL6 cells assessed as reduction of cell viability to IC50 for inhibition of VEGFR1/PDGFR/cKIT/RET in human ANBL6/BR resistant cells assessed as reduction of cell viability; conditions: condition multiple myeloma
[10] = Inhibition of VEGFR2/PDGFR/cKIT/RET in human ANBL-6 cells assessed as reduction of cell growth incubated for 72 hrs by CellTiter 96 aqueous one solution cell proliferation assay; format: cell-based; conditions: ANBL-6, 72 h
[11] = Inhibition of VEGFR3/PDGFR/cKIT/RET in human U-266 cells assessed as reduction of cell growth incubated for 72 hrs by CellTiter 96 aqueous one solution cell proliferation assay; format: cell-based; conditions: U-266, 72 h
[12] = Ratio of IC50 for inhibition of VEGFR3/PDGFR/cKIT/RET in human RPMI-8226 cells assessed as reduction of cell viability to IC50 for inhibition of VEGFR3/PDGFR/cKIT/RET in human melphalan-resistant RPMI-8226 cells assessed as reduction of cell viability; conditions: time 72 hrs; condition multiple myeloma
[13] = Inhibition of VEGFR1/PDGFR/cKIT/RET in bortezomib Resistant human RPMI-8226 cells assessed as reduction of cell growth incubated for 72 hrs by CellTiter 96 aqueous one solution cell proliferation assay; format: cell-based; conditions: Bortezomib-resistant RPMI-8226, 72 h
[14] = Ratio of IC50 for inhibition of VEGFR2/PDGFR/cKIT/RET in human RPMI-8226 cells assessed as reduction of cell viability to IC50 for inhibition of VEGFR2/PDGFR/cKIT/RET in human melphalan-resistant RPMI-8226 cells assessed as reduction of cell viability; conditions: time 72 hrs; condition multiple myeloma
[15] = Ratio of IC50 for inhibition of VEGFR1/PDGFR/cKIT/RET in human RPMI-8226 cells assessed as reduction of cell viability to IC50 for inhibition of VEGFR1/PDGFR/cKIT/RET in human RPMI-8226/BR resistant cells assessed as reduction of cell viability; conditions: condition multiple myeloma
[16] = Inhibition of VEGFR3/PDGFR/cKIT/RET in bortezomib Resistant human RPMI-8226 cells assessed as reduction of cell growth incubated for 72 hrs by CellTiter 96 aqueous one solution cell proliferation assay; format: cell-based; conditions: Bortezomib-resistant RPMI-8226, 72 h
[17] = Inhibition of VEGFR1/PDGFR/cKIT/RET in human ANBL-6 cells assessed as reduction of cell growth incubated for 72 hrs by CellTiter 96 aqueous one solution cell proliferation assay; format: cell-based; conditions: ANBL-6, 72 h
[18] = Inhibition of VEGFR2/PDGFR/cKIT/RET in human RPMI-8226 cells assessed as reduction of cell growth incubated for 72 hrs by CellTiter 96 aqueous one solution cell proliferation assay; format: cell-based; conditions: RPMI-8226, 72 h
[19] = Inhibition of VEGFR2/PDGFR/cKIT/RET in bortezomib Resistant human RPMI-8226 cells assessed as reduction of cell growth incubated for 72 hrs by CellTiter 96 aqueous one solution cell proliferation assay; format: cell-based; conditions: Bortezomib-resistant RPMI-8226, 72 h
[20] = Ratio of IC50 for inhibition of VEGFR3/PDGFR/cKIT/RET in human ANBL6 cells assessed as reduction of cell viability to IC50 for inhibition of VEGFR3/PDGFR/cKIT/RET in human ANBL6/BR resistant cells assessed as reduction of cell viability; conditions: condition multiple myeloma
[21] = Inhibition of VEGFR2/PDGFR/cKIT/RET in human bortezomib-resistant ANBL6 cells assessed as reduction of cell growth incubated for 72 hrs by CellTiter 96 aqueous one solution cell proliferation assay; format: cell-based
[22] = Inhibition of VEGFR3/PDGFR/cKIT/RET in human bortezomib-resistant ANBL6 cells assessed as reduction of cell growth incubated for 72 hrs by CellTiter 96 aqueous one solution cell proliferation assay; format: cell-based
[23] = Inhibition of VEGFR2/PDGFR/cKIT/RET in Melphalan Resistant human RPMI-8226 cells assessed as reduction of cell growth incubated for 72 hrs by CellTiter 96 aqueous one solution cell proliferation assay; format: cell-based; conditions: Melphalan-resistant RPMI-8226 cell
[24] = Inhibition of VEGFR2/PDGFR/cKIT/RET in human U-266 cells assessed as reduction of cell growth incubated for 72 hrs by CellTiter 96 aqueous one solution cell proliferation assay; format: cell-based; conditions: U-266, 72 h
[25] = Inhibition of VEGFR3/PDGFR/cKIT/RET in human ANBL-6 cells assessed as reduction of cell growth incubated for 72 hrs by CellTiter 96 aqueous one solution cell proliferation assay; format: cell-based; conditions: ANBL-6, 72 h
[26] = Ratio of IC50 for inhibition of VEGFR2/PDGFR/cKIT/RET in human ANBL6 cells assessed as reduction of cell viability to IC50 for inhibition of VEGFR2/PDGFR/cKIT/RET in human ANBL6/BR resistant cells assessed as reduction of cell viability; conditions: condition multiple myeloma
[27] = Inhibition of VEGFR1/PDGFR/cKIT/RET in Melphalan Resistant human RPMI-8226 cells assessed as reduction of cell growth incubated for 72 hrs by CellTiter 96 aqueous one solution cell proliferation assay; format: cell-based; conditions: Melphalan-resistant RPMI-8226 cell
cells [28] = conditions: Homo sapiens, RPMI-8226, 72 h
[29] = Ratio of IC50 for inhibition of hedgehog in human RPMI-8226 cells assessed as reduction of cell viability to IC50 for inhibition of hedgehog in human RPMI-8226/BR resistant cells assessed as reduction of cell viability; conditions: condition multiple myeloma
cells [30] = conditions: Homo sapiens, Bortezomib-resistant RPMI-8226, 72 h
cells [31] = conditions: Homo sapiens, ANBL-6, 72 h
cells [32] = conditions: Homo sapiens, Bortezomib-resistant ANBL6 cell, 72 h
cells [33] = conditions: Homo sapiens, U-266, 72 h
[34] = Ratio of IC50 for inhibition of hedgehog in human RPMI-8226 cells assessed as reduction of cell viability to IC50 for inhibition of hedgehog in human melphalan-resistant RPMI-8226 cells assessed as reduction of cell viability; conditions: time 72 hrs; condition multiple myeloma
[35] = Ratio of IC50 for inhibition of hedgehog in human ANBL6 cells assessed as reduction of cell viability to IC50 for inhibition of hedgehog in human ANBL6/BR resistant cells assessed as reduction of cell viability; conditions: condition multiple myeloma
cells [36] = conditions: Homo sapiens, Melphalan-resistant RPMI-8226 cell, 72 h

With `CC1(C)CNc2cc(NC(=O)c3cccnc3NCc3ccncc3)ccc21` [MOTESANIB] as the compound, how does the IC50 [1] read?
The IC50 was 10 µM.

What about the “Ratio IC50” value [2] of the same compound?
The value was 1.

And the “Ratio IC50” value [3]?
The value was 1.

And the IC50 [4]?
The IC50 was 10 µM.

What about the IC50 [5] of the same compound?
Its IC50 is 10 µM.

What about the “Ratio IC50” value [6] of the same compound?
Its value is 1.

What about the IC50 [7] of the same compound?
Its IC50 is 10 µM.

What about the IC50 [8] of the same compound?
Its IC50 is 10 µM.

And the “Ratio IC50” value [9]?
Its value is 1.

What about the IC50 [10] of the same compound?
Its IC50 is 10 µM.

And the IC50 [11]?
The IC50 was 10 µM.

And the “Ratio IC50” value [12]?
Its value is 1.

What about the IC50 [13] of the same compound?
The IC50 was 10 µM.

What about the “Ratio IC50” value [14] of the same compound?
Its value is 1.

And the “Ratio IC50” value [15]?
Its value is 1.

And the IC50 [16]?
The IC50 was 10 µM.

And the IC50 [17]?
Its IC50 is 10 µM.

And the IC50 [18]?
The IC50 was 10 µM.

What about the IC50 [19] of the same compound?
Its IC50 is 10 µM.

And the “Ratio IC50” value [20]?
Its value is 1.

And the IC50 [21]?
The IC50 was 10 µM.

And the IC50 [22]?
The IC50 was 10 µM.

What about the IC50 [23] of the same compound?
Its IC50 is 10 µM.

And the IC50 [24]?
The IC50 was 10 µM.

And the IC50 [25]?
Its IC50 is 10 µM.

And the “Ratio IC50” value [26]?
The value was 1.

And the IC50 [27]?
The IC50 was 10 µM.

Which results are given for `CS(=O)(=O)c1ccc(C(=O)Nc2ccc(Cl)c(-c3ccccn3)c2)c(Cl)c1` [VISMODEGIB]?
IC50 (cells [28]): 10 µM; Ratio IC50 [29]: 1; IC50 (cells [30]): 10 µM; IC50 (cells [31]): 10 µM; IC50 (cells [32]): 10 µM; IC50 (cells [33]): 10 µM; Ratio IC50 [34]: 1; Ratio IC50 [35]: 1; IC50 (cells [36]): 10 µM
